Measured values published in US20250360113A1, “ADMINISTRATION OF DHB TO INCREASE BENEFIT OF LOSING WEIGHT OF INTERMITTENT FASTING” (NANJING NUTRABUILDING BIO-TECH CO., LTD., priority 2023, published 2025).

Test: Oral glucose tolerance test (OGTT)
Type: in vivo, C57BL/6 male mice
Settings: HFD obese mice
Procedure: 50 C57BL/6 male mice aged about 8 weeks, are randomly assigned to five study groups (GA, GB1, GB2, GB3, GB4) of ten mice each (one cage, n=5 per condition). Mice were maintained in a pathogen free condition under a strict 12 h light/dark cycle (0600/1800 h) with 12-15 cycles/hour of air change. Mice were provided with access to respective feed and water ad libitum as per experimental conditions. Mice were housed under controlled laboratory conditions of temperature and humidity at 23±2° C. and 50±10% RH, respectively. Each study group consisted of ten animals, and treatment details of the individual study groups are given below: • Group A (GA, NC): Normal mice, maintained on normal diet (standard chow, 12% calories from fat; 23% calories from protein and 65% calories from carbohydrates) for 8 weeks, receiving neither EODF nor DHB treatment. • Group B1 (GB1): Obese mice, maintained on high fat diet (HFD, 60% calories from fat, 20% calories from protein, 20% calories from carbohydrate) for 8 weeks, receiving neither EODF nor DHB treatment. • Group B2 (GB2): Obese mice, maintained on HFD for 8 weeks, receiving only EODF and no DHB treatment. • Group B3 (GB3): Obese mice, maintained on HFD for 8 weeks, receiving only DHB treatment and no EODF. • Group B4 (GB4): Obese mice, maintained on HFD for 8 weeks, receiving DHB treatment and EODF combination. DHB was administered daily via intragastric injection (i.g.) according to a level of 70 mg/kg body weight. Mice not receiving DHB were given orally with ultrapure water. Oral glucose tolerance test (OGTT): To measure glucose levels in blood, GTT were implemented in the mice (NC and HFD groups) after overnight by using a glucose analyzer. The glucose concentrations were measured in blood collected by venous bleeding from the tail vein immediately at 0, 15, 30, 60 and 120 min after administered glucose at 2 g/kg orally. Towards the end of the final week of the study, GTT was also performed for all mice (NC and HFD groups).

[1] = DHB + EODF combination vs EODF only

COc1ccc2c(c1OC)CN1CCc3cc4c(cc3C1=C2)OCO4 [DHB, Dihydroberberine]
blood glucose levels (DHB 70 mg/kg i.g. daily vs no DHB with and without EODF, FIGS. 11-14): greater reduction
improving the glucose tolerance [1]: greater effects
reducing the blood glucose levels [1]: greater effects
glucose tolerance (glucose 2 g/kg orally, DHB vs no DHB with and without EODF): better
